Assay [1] deals with circulating lymphocytes. Description: Measurement of Circulating Lymphocytes. The class given is in vivo, Rats (Lewis strain, male). The conditions noted are these: Rattus norvegicus, Lymphocyte, read-out: Residual Lymphocyte Counts 14 hours after 30 mg/kg p.o. dosing. Here is the method:
The compounds of formula (I) typically induce the depletion of blood lymphocyte as may be determined in the assay described below. Moreover, compounds of formula (I) are typically efficacious in the said assay also when administered via the per oral route of administration.
Measurement of Circulating Lymphocytes:
The test compounds (or salts thereof) are dissolved in a vehicle such as water, saline, PEG (polyethylene glycol) 200, or PBS (phosphate buffered saline). Rats (Lewis strain, male, 6-12 weeks old) are administered up to 100 mg/kg of the test compounds in 2 ml/kg vehicle via per oral or subcutaneous application. The vehicle or a reference salt and FTY720 (0.3 mg/kg) are included as negative and positive controls, respectively.
Blood is collected from the sublingual vein before and 2, 8 and 24 hours or 14, 18 and 24 hours after the test compound administration under short isoflurane anesthesia. Whole blood samples are subjected to hematology analysis. Peripheral lymphocyte counts are determined using an automated analyzer. The Haemathology System uses a combination of light scatter, cytochemical staining and nuclear density on two independent channels to measure the total and differential white cell counts. Two to four rats are used to assess the lymphocyte depletion activity of each compound screened. The data are presented as mean±SEM.

For assay [2], the target named is T1, human S1P1 receptors (Homo sapiens, UniProt P21453).
T1 construct: myc (N); expressed in transfected cells; host or cells: HeLa (human cervix carcinoma, ATCC CCL2), HeLa-S1P1/Gα16 cell clone 1
In words: Human S1P1 Receptor Calcium FLIPR Antagonist Assay (HeLa Gα16 S1P1). The conditions noted are these: relative antagonism of Ca2+ signal evoked by probing agonist GNF-AC-1 at EC80; HeLa-S1P1/Gα16 cells. It counts as cell-based. Put shortly:
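HeLa Gα16 cells expressing S1P1 loaded for calcium fluorescence on FLIPR; compounds added in HBSS with 0.1% BSA, then agonist at EC80 20-30 min later. IC50 from (Fmax-Fmin)/Fmin versus log compound concentration.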

Where [3] appears, read: male Lewis rats, 14 hours after oral 30 mg/kg, compared to vehicle-only group, mean±SEM.

Where two headings read alike, the source gives them in different places.

T1 sequence (P21453 whole entry): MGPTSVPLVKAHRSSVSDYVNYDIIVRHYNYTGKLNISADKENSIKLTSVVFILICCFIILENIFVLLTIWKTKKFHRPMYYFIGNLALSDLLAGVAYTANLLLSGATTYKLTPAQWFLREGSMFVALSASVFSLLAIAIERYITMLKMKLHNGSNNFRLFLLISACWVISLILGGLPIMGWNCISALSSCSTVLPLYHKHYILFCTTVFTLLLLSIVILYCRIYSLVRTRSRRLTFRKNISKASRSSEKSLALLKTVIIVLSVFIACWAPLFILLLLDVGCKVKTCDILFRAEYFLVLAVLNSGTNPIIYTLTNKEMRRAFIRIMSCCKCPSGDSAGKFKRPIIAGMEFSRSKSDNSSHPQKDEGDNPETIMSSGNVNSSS

In the case of `Cc1cc([C@@H](C)Nc2cccc(-c3cc(C)c(C(=O)N[C@@H](C)C(=O)O)c(C)c3)c2)ccc1Cl` [Example 3, (S)-2-({3′-[(R)-1-(4-Chloro-3-methyl-phenyl)-ethylamino]-3,5-dimethyl-biphenyl-4-carbonyl}-amino)-propionic acid], the response vs control in vivo at 30 mg/kg in assay [1] (po, 14 h) is 15.5%. A word on the IC50: it is the concentration at which inhibition is half-maximal. Take `CC[C@@H](Nc1cccc(-c2cc(C)c(C(=O)N[C@@H](C)C(=O)O)c(C)c2)c1)c1ccc(Cl)c(C)c1` [Example 6, (S)-2-({3′-[(R)-1-(4-Chloro-3-methyl-phenyl)-propylamino]-3,5-dimethyl-biphenyl-4-carbonyl}-amino)-propionic acid]: in assay [2], the IC50 is 2 nM. Also, in assay [1] (setting [3]), the response vs control in vivo at 30 mg/kg amounted to 15.9%.

For the compound `Cc1cc(C(C)Nc2cccc(-c3cc(C)c(C(=O)NC4(C(=O)O)CC4)c(C)c3)c2)ccc1Cl` (stereo not shown) [Example 7, 1-({3′-[1-(4-Chloro-3-methyl-phenyl)-ethylamino]-3,5-dimethyl-biphenyl-4-carbonyl}-amino)-cyclopropanecarboxylic acid], in assay [2], the IC50 came out at 2 nM. In addition, the response vs control in vivo at 30 mg/kg in assay [1] (setting [3]) was 14.8%. In the same order, the values of `Cc1cc([C@@H](C)Nc2cccc(-c3cc(C)c(C(=O)NC4(C(=O)O)CC4)c(C)c3)c2)ccc1Cl` [Example 8, 1-({3′-[(R)-1-(4-Chloro-3-methyl-phenyl)-ethylamino]-3,5-dimethyl-biphenyl-4-carbonyl}-amino)-cyclopropanecarboxylic acid] are 2 nM and 16.7%. For `CCC(Nc1cccc(-c2cc(C)c(C(=O)N[C@@H](C)C(=O)O)c(C)c2)c1)c1ccc(Cl)c(Cl)c1` (stereo partly drawn) [Example 20, (S)-2-({3′-[1-(3,4-Dichloro-phenyl)-propylamino]-3,5-dimethyl-biphenyl-4-carbonyl}-amino)-propionic acid], in that order: 8 nM and 18.7%. Turning to `Cc1cc(C(C)Nc2ccc(F)c(-c3cc(C)c(C(=O)N[C@@H](C)C(=O)O)c(C)c3)c2)ccc1Cl` (stereo partly drawn) [Example 22, (S)-2-({5′-[1-(4-Chloro-3-methyl-phenyl)-ethylamino]-2′-fluoro-3,5-dimethyl-biphenyl-4-carbonyl}-amino)-propionic acid], in assay [2], the IC50 came to 2 nM. Also, in assay [1] (setting [3]), the response vs control in vivo at 30 mg/kg came out at 18.7%. For `Cc1cc([C@@H](C)Nc2ccc(F)c(-c3cc(C)c(C(=O)N[C@@H](C)C(=O)O)c(C)c3)c2)ccc1Cl` [Example 23, (S)-2-({5′-[(R)-1-(4-Chloro-3-methyl-phenyl)-ethylamino]-2′-fluoro-3,5-dimethyl-biphenyl-4-carbonyl}-amino)-propionic acid], the IC50 in assay [2] was 1 nM. Moreover, the response vs control in vivo at 30 mg/kg in assay [1] (setting [3]) turned out to be 17.4%.

With `CCC(Nc1ccc(F)c(-c2cc(C)c(C(=O)N[C@@H](C)C(=O)O)c(C)c2)c1)c1ccc(Cl)c(C)c1` (stereo partly drawn) [Example 24, (S)-2-({5′-[1-(4-Chloro-3-methyl-phenyl)-propylamino]-2′-fluoro-3,5-dimethyl-biphenyl-4-carbonyl}-amino)-propionic acid], the IC50 in assay [2] turned out to be 1 nM. In assay [1] (setting [3]), the response vs control in vivo at 30 mg/kg worked out at 16.8%. Consider `CCC(Nc1ccc(F)c(-c2cc(C)c(C(=O)NC3(C(=O)O)CC3)c(C)c2)c1)c1ccc(Cl)c(C)c1` (stereo not shown) [Example 25, 1-({5′-[1-(4-Chloro-3-methyl-phenyl)-propylamino]-2′-fluoro-3,5-dimethyl-biphenyl-4-carbonyl}-amino)-cyclopropanecarboxylic acid], for which the IC50 in assay [2] was 2 nM. For the same compound, in assay [1] (setting [3]), the response vs control in vivo at 30 mg/kg came out at 15%.

Turning to `Cc1cc(C(C)Nc2ccc(F)c(-c3cc(C)c(C(=O)NC4(C(=O)O)CC4)c(C)c3)c2)ccc1Cl` (stereo not shown) [Example 26, 1-({5′-[1-(4-Chloro-3-methyl-phenyl)-ethylamino]-2′-fluoro-3,5-dimethyl-biphenyl-4-carbonyl}-amino)-cyclopropanecarboxylic acid], the IC50 in assay [2] was determined as 1 nM. The response vs control in vivo at 30 mg/kg in assay [1] (setting [3]) is 12.9%. With `Cc1cc([C@@H](C)Nc2cccc(-c3cc(C)c(C(=O)N(C)[C@@H](C)C(=O)O)c(C)c3)c2)ccc1Cl` [Example 73], in assay [2], the IC50 was 4 nM. In assay [1] (setting [3]), the response vs control in vivo at 30 mg/kg worked out at 16.6%. For `Cc1cc(C(Nc2cccc(-c3cc(C)c(C(=O)N[C@@H](C)C(=O)O)c(C)c3)c2)C(F)(F)F)ccc1Cl` (stereo partly drawn) [Example 74, (S)-2-({3′-[1-(4-Chloro-3-methyl-phenyl)-2,2,2-trifluoro-ethylamino]-3,5-dimethyl-biphenyl-4-carbonyl}-amino)-propionic acid], in that order: 8 nM and 15.5%.

In the case of `Cc1cc(C(Nc2cccc(-c3cc(C)c(C(=O)N[C@@H](C)C(=O)O)c(C)c3)c2)C(F)F)ccc1Cl` (stereo partly drawn) [Example 75, (S)-2-({3′-[1-(4-Chloro-3-methyl-phenyl)-2,2-difluoro-ethylamino]-3,5-dimethyl-biphenyl-4-carbonyl}-amino)-propionic acid], in assay [2], the IC50 is 6 nM. Also, the response vs control in vivo at 30 mg/kg in assay [1] (setting [3]) worked out at 19.4%. Take `Cc1cc([C@@H](C)Nc2cccc(-c3cc(C)c(C(=O)N(C)C4(C(=O)O)CC4)c(C)c3)c2)ccc1Cl` [Example 81, 1-({3′-[(R)-1-(4-Chloro-3-methyl-phenyl)-ethylamino]-3,5-dimethyl-biphenyl-4-carbonyl}-methyl-amino)-cyclopropanecarboxylic acid]: in assay [2], the IC50 came out at 1 nM. Moreover, the response vs control in vivo at 30 mg/kg in assay [1] (setting [3]) amounted to 15.4%. Turning to `Cc1cc(C(C)(C)Nc2cccc(-c3cc(C)c(C(=O)N[C@@H](C)C(=O)O)c(C)c3)c2)ccc1Cl` [Example 82, (S)-2-({3′-[1-(4-Chloro-3-methyl-phenyl)-1-methyl-ethylamino]-3,5-dimethyl-biphenyl-4-carbonyl}-amino)-propionic acid], the IC50 in assay [2] turned out to be 3 nM. In addition, the response vs control in vivo at 30 mg/kg in assay [1] (setting [3]) was found to be 10.8%.

For the compound `Cc1cc(C(C)(C)Nc2cccc(-c3cc(C)c(C(=O)N(C)[C@@H](C)C(=O)O)c(C)c3)c2)ccc1Cl` [Example 83, (S)-2-({3′-[1-(4-Chloro-3-methyl-phenyl)-1-methyl-ethylamino]-3,5-dimethyl-biphenyl-4-carbonyl}-methyl-amino)-propionic acid], in assay [2], the IC50 came to 2 nM. In assay [1] (setting [3]), the response vs control in vivo at 30 mg/kg came out at 15.2%. For `Cc1cc(C(C)(C)Nc2cccc(-c3cc(C)c(C(=O)NC4(C(=O)O)CC4)c(C)c3)c2)ccc1Cl` [Example 84, 1-({3′-[1-(4-Chloro-3-methyl-phenyl)-1-methyl-ethylamino]-3,5-dimethyl-biphenyl-4-carbonyl}-amino)-cyclopropanecarboxylic acid], in that order: 2 nM and 18.6%. In the same order, the values of `Cc1cc(C(C)(C)Nc2cccc(-c3cc(C)c(C(=O)N(C)C4(C(=O)O)CC4)c(C)c3)c2)ccc1Cl` [Example 85, 1-({3′-[1-(4-Chloro-3-methyl-phenyl)-1-methyl-ethylamino]-3,5-dimethyl-biphenyl-4-carbonyl}-methyl-amino)-cyclopropanecarboxylic acid] are 11 nM and 14.7%.

As for `Cc1cc([C@@H](C)Nc2cccc(-c3cc(C)c(C(=O)NC4(C(=O)O)CC4)c(C)c3)c2)cc(C)c1Cl` [Example 99, 1-({3′-[(R)-1-(4-Chloro-3,5-dimethyl-phenyl)-ethylamino]-3,5-dimethyl-biphenyl-4-carbonyl}-amino)-cyclopropanecarboxylic acid], the IC50 in assay [2] was found to be 1 nM. For the same compound, in assay [1] (setting [3]), the response vs control in vivo at 30 mg/kg was 15.5%.
